Consider four compounds from patent US9480680B2, “Stable pharmaceutical composition of clopidogrel free base for oral and parenteral delivery” (priority 2013, dated 2016).

For data set [1] the following is noted: for Concentration, Aqueous Phase / Concentration, Oil Phase: 600 mg drug in 20 g soy bean oil + 20 g DI water, stirred at room temperature 24 hours, HPLC; for pH of aqueous phase: aqueous phase at end of partition study; for O/W partition ratio: soy bean oil / DI water, room temperature 24 hours. On the procedure: In order to determine percentage of clopidogrel partitioning in oil and aqueous phases, a partition study was conducted using clopidogrel biosulfate and clopidogrel free base. 600 mg of drug was weighed out and added to a beak containing equal weight of soy bean oil and DI water (20 g each). Stir the mixture in room temperature for 24 hours. At the end of study, samples from both phases were withdrawn and tested by HPLC as described in Example 14. The pH of the aqueous phase were measured.

The conditions of data set [2]: cited from earlier work.
In the next data set the test system is platelet aggregation. The following applies: cited from earlier work.
The conditions of data set [3]: 5 min. From the text: As used herein the disease or condition refers to any disease or condition which may be treated using clopidogrel containing medicine for the prevention of atherothrombotic events such as myocardial infarction, stroke, peripheral arterial disease, acute coronary syndrome, and cardio-vascular death.
The conditions of data set [4]: cited from earlier work. The source holds these as a separate data set.

Like-named read-outs stand apart in the source and are kept apart here.

With `COC(=O)[C@H](c1ccccc1Cl)N1CCc2sccc2C1` [Clopidogrel bisulfate], in data set [1], the “Concentration, Aqueous Phase” value was determined as 15000 µg/mL; the “Concentration, Oil Phase” value came to 17000 µg/mL; the “pH of aqueous phase” value is listed as 2; the O/W partition ratio turned out to be 1.1. Also, in data set [1] (soy bean oil / DI water partition study), the “clopidogrel staying in the aqueous phase” value is “about 50%”. Further, the “stability under increased moisture and temperature” value in data set [2] (listed as clopidogrel biosulfate) is reported as “relatively unstable”.

Consider `COC(=O)[C@H](c1ccccc1Cl)N1CCc2sccc2C1` [Clopidogrel free base, methyl (+)-(S)-α-(o-chlorophenyl)-6,7-dihydrothieno[3,2-c]pyridine-5(4H)-acetate], for which, in data set [1], the “Concentration, Aqueous Phase” value was determined as 6 µg/mL; the “Concentration, Oil Phase” value amounted to 29000 µg/mL; the “pH of aqueous phase” value was determined as 7; the O/W partition ratio stood at 4833. In addition, in data set [1] (soy bean oil / DI water partition study, result in words), the “amount of clopidogrel in the aqueous phase” value is given as “negligible”. For the same compound, the “solubility in ethyl ether” value in data set [2] (ethyl ether) was “practically insoluble”. In addition, the “stability under increased moisture and temperature” value in data set [2] is “unstable”. Besides, in data set [2] (methanol), the solubility in methanol entry is “dissolves freely”. The “solubility in methylene chloride” value in data set [2] (methylene chloride) is on record as “dissolves sparingly”. For the same compound, the “solubility at pH 1” value in data set [2] (pH 1) is recorded as “freely soluble”. For the same compound, in data set [2] (water, neutral pH), the “solubility in water at neutral pH” value was “practically insoluble”. The “biological / pharmacological activity” value in the data set on platelet aggregation is recorded as “biologically active”. The “degradation in diluted NaOH solution” value in data set [3] is reported as “degraded completely in 5 minutes”.

On to `O=C(O)[C@H](c1ccccc1Cl)N1CCc2sccc2C1` [Impurity A], for which, in the data set on platelet aggregation, the “biological / pharmacological activity” value is listed as “no pharmacological activity”.

Turning to `COC(=O)[C@@H](c1ccccc1Cl)N1CCc2sccc2C1` [Impurity C, methyl ( )-(R)-(o-chlorophenyl)-6,7-dihydrothieno[3,2-c]pyridine-5(4H)-acetate], the convulsions result in data set [4] (high doses of animals) was “can evoke convulsions”. The tolerability result in data set [4] (in vivo) was “poorly tolerated”. Further, the anti-aggregation activity result in the data set with platelet aggregation is on record as “does not exhibit any anti-aggregation activity”.
